This experiment has as its target human ACC2 (Homo sapiens (Human), UniProt O00763). Briefly: ACC2 assay (spectrophotometric 384 well assay, NADH-linked kinetic method). In kind it is biochemical. The following applies: hACC2 construct lacking 128 N-terminal amino acids, 25° C., 340 nm. On the procedure:
Spectrophotometric 384 Well Assay
Malonyl CoA formation by acetyl CoA carboxylases is stoichometrically linked to the consumption of ATP. ACC2 activity is measured in a NADH-linked kinetic method measuring ADP generated during the ACC reaction using a coupled lactate dehydrogenase/pyruvate kinase reaction.
The protein is then expressed in insect cells using a baculoviral expression system. Protein purification is performed by anion exchange.
All compounds are dissolved in dimethyl sulfoxide (DMSO) to a concentration of 10 mM.
The enzymatic reaction is then started by addition of a mixture of NADH, acetyl Coenzyme A (both 200 μM f.c.) and ATP (500 uM f.c.). The decrease of the optical density (slope S) is then determined at 25° C. at a wavelength of 340 nm over 15 minutes in a spectrophotometric reader.
Each assay microtiter plate contains wells with vehicle instead of compound as controls for the non-inhibited enzyme (100% CTL; ‘HIGH’) and wells without acetyl-CoA as controls for non-specific NADH degradation (0% CTL; ‘LOW’).

Chain of human ACC2 (O00763 129-2458): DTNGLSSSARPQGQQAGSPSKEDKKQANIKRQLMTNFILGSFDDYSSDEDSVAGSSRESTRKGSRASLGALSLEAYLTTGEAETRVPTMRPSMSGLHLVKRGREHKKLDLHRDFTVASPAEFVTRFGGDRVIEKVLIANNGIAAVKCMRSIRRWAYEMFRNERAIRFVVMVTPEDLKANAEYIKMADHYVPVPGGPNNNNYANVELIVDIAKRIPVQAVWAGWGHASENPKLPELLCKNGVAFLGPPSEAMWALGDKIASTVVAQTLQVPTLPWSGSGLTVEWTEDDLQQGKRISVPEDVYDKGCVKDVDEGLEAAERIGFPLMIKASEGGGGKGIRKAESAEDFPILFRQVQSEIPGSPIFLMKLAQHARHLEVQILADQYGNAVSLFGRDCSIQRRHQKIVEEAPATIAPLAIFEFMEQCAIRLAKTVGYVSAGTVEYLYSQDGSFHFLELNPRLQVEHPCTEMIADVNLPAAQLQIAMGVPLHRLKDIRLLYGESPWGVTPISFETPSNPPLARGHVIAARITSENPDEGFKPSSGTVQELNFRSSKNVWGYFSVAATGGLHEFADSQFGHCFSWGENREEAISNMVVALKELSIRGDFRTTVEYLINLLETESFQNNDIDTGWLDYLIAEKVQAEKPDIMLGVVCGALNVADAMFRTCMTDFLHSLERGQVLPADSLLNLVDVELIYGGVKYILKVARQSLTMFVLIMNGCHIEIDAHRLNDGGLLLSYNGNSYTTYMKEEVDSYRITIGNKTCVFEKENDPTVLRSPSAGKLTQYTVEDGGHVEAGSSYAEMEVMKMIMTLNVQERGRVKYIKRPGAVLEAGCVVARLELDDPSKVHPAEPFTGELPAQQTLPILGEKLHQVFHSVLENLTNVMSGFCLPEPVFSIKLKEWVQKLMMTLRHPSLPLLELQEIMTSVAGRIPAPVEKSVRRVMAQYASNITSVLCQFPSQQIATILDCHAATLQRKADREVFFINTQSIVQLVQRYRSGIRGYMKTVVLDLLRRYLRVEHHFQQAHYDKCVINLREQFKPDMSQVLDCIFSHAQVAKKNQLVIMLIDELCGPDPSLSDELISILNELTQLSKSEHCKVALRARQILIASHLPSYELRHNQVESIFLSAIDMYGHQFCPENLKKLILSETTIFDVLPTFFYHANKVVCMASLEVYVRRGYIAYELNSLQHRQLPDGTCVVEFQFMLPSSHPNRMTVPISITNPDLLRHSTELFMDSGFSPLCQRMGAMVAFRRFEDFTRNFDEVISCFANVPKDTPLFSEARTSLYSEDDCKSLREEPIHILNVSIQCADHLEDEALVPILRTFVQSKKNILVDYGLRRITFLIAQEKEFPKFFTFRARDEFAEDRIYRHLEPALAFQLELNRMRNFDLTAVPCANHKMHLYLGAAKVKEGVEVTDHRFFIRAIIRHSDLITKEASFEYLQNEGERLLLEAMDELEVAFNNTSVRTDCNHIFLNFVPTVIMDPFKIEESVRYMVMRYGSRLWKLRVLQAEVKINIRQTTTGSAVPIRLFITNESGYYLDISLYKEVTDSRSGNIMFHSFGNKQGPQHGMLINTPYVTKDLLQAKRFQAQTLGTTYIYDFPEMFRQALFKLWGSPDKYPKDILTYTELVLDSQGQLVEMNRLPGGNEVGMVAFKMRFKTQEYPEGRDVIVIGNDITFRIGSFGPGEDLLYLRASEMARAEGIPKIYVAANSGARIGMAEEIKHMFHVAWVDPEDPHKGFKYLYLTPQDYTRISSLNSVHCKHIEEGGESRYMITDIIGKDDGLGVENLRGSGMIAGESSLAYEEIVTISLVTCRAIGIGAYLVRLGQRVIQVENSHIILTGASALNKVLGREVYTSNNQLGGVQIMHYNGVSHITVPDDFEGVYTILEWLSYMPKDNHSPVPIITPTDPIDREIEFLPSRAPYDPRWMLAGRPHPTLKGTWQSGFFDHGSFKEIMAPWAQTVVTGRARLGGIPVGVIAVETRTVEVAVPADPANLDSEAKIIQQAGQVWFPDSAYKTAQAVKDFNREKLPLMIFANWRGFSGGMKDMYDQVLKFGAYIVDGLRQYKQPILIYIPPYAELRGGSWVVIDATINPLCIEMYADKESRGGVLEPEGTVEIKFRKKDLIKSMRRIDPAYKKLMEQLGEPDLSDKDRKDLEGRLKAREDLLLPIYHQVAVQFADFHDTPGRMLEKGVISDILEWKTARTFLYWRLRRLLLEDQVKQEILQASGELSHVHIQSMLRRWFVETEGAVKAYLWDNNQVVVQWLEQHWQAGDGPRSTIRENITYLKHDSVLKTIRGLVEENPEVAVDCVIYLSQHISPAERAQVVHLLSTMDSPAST

One may read the IC50 as the concentration needed to halve the response being measured. Read a low IC50 as greater potency in that assay. The compound `CC(=O)Nc1cc(C(=O)N[C@@H](C)c2ccc(OC3CCN(c4ccc(OCC5CC5)cc4)C3)cc2)on1` (stereo partly drawn) [Example 8.2] gave an IC50 of 365 nM. Regarding `C[C@H](NC(=O)c1cnn(C(F)F)c1)c1ccc(O[C@@H]2CCN(c3ccc(OCC4CC4)cc3)C2)cc1` [Example 2.46], the midpoint of inhibition, the IC50, lay at 382 nM. This IC50 and that of the compound before are within 1.5-fold of each other.

Turning to `Cc1nocc1C(=O)N[C@@H](C)c1ccc(O[C@@H]2CCN(c3ccc(OCC4CC4)cc3)C2)cc1` [Example 2.37], inhibition was half-maximal at 65 nM (IC50).

For the compound `C[C@H](NC(=O)C1CC[C@@H](N)C1)c1ccc(O[C@@H]2CCN(c3ccc(OCC4CC4)cc3)C2)cc1` (stereo partly drawn) [Example 9], the IC50 is 1750 nM.

In the case of `CC(=O)N[C@@H](C)c1ccc(OC2CCN(c3cccc(F)c3C)C2)cc1` (stereo partly drawn) [Example 1.31], half-maximal inhibition (IC50) was put at 913 nM. To `C[C@H](NC(=O)C(C)(C)C#N)c1ccc(O[C@@H]2CCN(c3ccc(OCC4CC4)cc3)C2)cc1` [Example 2.39] belongs 465 nM.

With `Cc1[nH]ncc1C(=O)N[C@@H](C)c1ccc(O[C@@H]2CCN(c3ccc(OCC4CC4)cc3)C2)cc1` [Example 2.26], the IC50 turned out to be 47 nM. Next, `C[C@H](NC(=O)c1cn(C)nc1C#N)c1ccc(O[C@@H]2CCN(c3ccc(OCC4CC4)cc3)C2)cc1` [Example 2.56]: 417 nM. To `Cc1cc(OC2CC2)ccc1N1CC[C@@H](Oc2ccc([C@H](C)NC(=O)c3cnoc3C)cc2)C1` [Example 2.65] belongs 90 nM; to `Cc1cc(OC2CC2)ccc1N1CC[C@@H](Oc2ccc([C@H](C)NC(=O)CO)cc2)C1` [Example 2.58], 743 nM; to `CCCOc1ccc(N2CCC(Oc3ccc([C@H](C)NC(C)=O)cc3)C2)cc1` (stereo partly drawn) [Example 1.8], 140 nM.

The compound `CC(=O)N[C@@H](C)c1ccc(O[C@H]2CCN(c3ccc(OC4CC4)cc3)C2)cc1` [Example 1.49] came in with an IC50 of 775 nM. Against the preceding compound, the IC50 is about 5.5-fold higher. Compound `CC(=O)N[C@@H](C)c1ccc(OC2CCN(c3ccc(OC4CC4)cc3F)C2)cc1` (stereo partly drawn) [Example 1.40] yielded an IC50 of 147 nM. For `CC(=O)Nc1cccc(C(=O)N[C@@H](C)c2ccc(O[C@@H]3CCN(c4ccc(OCC5CC5)cc4)C3)cc2)c1C` [Example 2.4], inhibition was half-maximal at 517 nM (IC50). Against the preceding compound, the IC50 is about 3.5-fold higher. Next, `CC(=O)N[C@@H](C)c1ccc(OC2CCN(c3ccccc3)C2)cc1` (stereo partly drawn) [Example 1.44]: 435 nM; `CNC(=O)N[C@@H](C)c1ccc(OC2CCN(c3ccc(OC(C)C)cc3)C2)cc1` (stereo partly drawn) [Example 3.9]: 205 nM; `C[C@H](NC(=O)Cc1cc[nH]c1)c1ccc(O[C@@H]2CCN(c3ccc(OCC4CC4)cc3)C2)cc1` [Example 2.12]: 397 nM. Next, `C[C@H](NC(=O)c1ccns1)c1ccc(O[C@@H]2CCN(c3ccc(OCC4CC4)cc3)C2)cc1` [Example 2.28]: 105 nM; `CC(=O)N[C@@H](C)c1ccc(OC2CCN(c3ccc4c(c3F)OCCO4)C2)cc1` (stereo partly drawn) [Example 1.47]: 339 nM. To `CC(=O)N[C@@H](C)c1ccc(OC2CCN(c3ccc(OC(C)C)cc3)C2)cc1` (stereo partly drawn) [Example 1.15] belongs 214 nM; to `CCC(=O)N[C@@H](C)c1ccc(O[C@@H]2CCN(c3ccc(OC4CC4)cc3C)C2)cc1` [Example 2.62], 411 nM. As to `CC(=O)N[C@@H](C)c1ccc(OC2CCN(c3ccc(OC4CC4)cc3)C2)cc1` (stereo partly drawn) [Example 1.6], inhibition was half-maximal at 108 nM (IC50). As to `COCCOc1ccc(N2CCC(Oc3ccc([C@H](C)NC(C)=O)cc3)C2)c(F)c1` (stereo partly drawn) [Example 1.38], the IC50 was found to be 685 nM.

`CC(=O)NC(C)c1ccc(OC2CCN(c3ccc(OCC4CC4)cc3)C2)nc1` (stereo not drawn) [Example 1.56] yielded an IC50 of 298 nM. In turn, `CCCOc1ccc(N2CCC(Oc3ccc([C@H](C)NC(C)=O)cc3)C2)c(C)c1` (stereo partly drawn) [Example 1.86] had a 50% inhibitory concentration (IC50) of 65 nM. Against the preceding compound, the IC50 is about 4.6-fold lower. To `CC(=O)N[C@@H](C)c1ccc(OC2CCN(c3ccc(F)c(C(F)(F)F)c3)C2)cc1` (stereo partly drawn) [Example 1.34] belongs 224 nM; to `C[C@H](O)C(=O)N[C@@H](C)c1ccc(O[C@@H]2CCN(c3ccc(OCC4CC4)cc3)C2)cc1` [Example 2.30], 793 nM. Next, `CCC(=O)Nc1nc(C)c(C(=O)N[C@@H](C)c2ccc(OC3CCN(c4ccc(OCC5CC5)cc4)C3)cc2)s1` (stereo partly drawn) [Example 2.41]: 23 nM. Next, `CC(=O)Nc1nc(C)c(C(=O)N[C@@H](C)c2ccc(OC3CCN(c4ccc(OCC5CC5)cc4)C3)cc2)s1` (stereo partly drawn) [Example 2.1]: 40 nM.

As to `CC(=O)N[C@@H](C)c1ccc(OC2CCN(c3ccc(OCC4CC4(F)F)c(F)c3)C2)cc1` (stereo partly drawn) [Example 1.98], the concentration for half-maximal inhibition (IC50) was 64 nM.

In turn, `CC(=O)N[C@@H](C)c1ccc(OC2CCN(c3ccc(OCC4CC4)cc3C)C2)cc1` (stereo partly drawn) [Example 1.84] registered an IC50 of 69 nM. To `CC(=O)N[C@@H](C)c1ccc(O[C@@H]2CCN(c3ccc(OCC4CC4)cc3)C2)cc1` [Example 1.1, N—((S)-1-(4-((R)-1-(4-(Cyclopropylmethoxy)phenyl)pyrrolidin-3-yloxy)phenyl)ethyl)-acetamide] belongs 54 nM. To `Cc1nc(N)sc1C(=O)N[C@@H](C)c1ccc(O[C@@H]2CCN(c3ccc(OCC4CC4)cc3)C2)cc1` [Example 2.40] belongs 384 nM; to `C[C@H](NC(=O)CC#N)c1ccc(O[C@@H]2CCN(c3ccc(OCC4CC4)cc3)C2)cc1` [Example 2.31], 71 nM. Next, `C[C@H](NC(=O)C1(C#N)CC1)c1ccc(O[C@@H]2CCN(c3ccc(OCC4CC4)cc3)C2)cc1` [Example 2.35]: 273 nM; `CC(=O)N[C@@H](C)c1ccc(OC2CCN(c3ccc(OCC4CC4)cc3F)C2)cc1` (stereo partly drawn) [Example 1.10]: 230 nM; `C[C@H](NC(=O)c1cnn(CCO)c1)c1ccc(O[C@@H]2CCN(c3ccc(OCC4CC4)cc3)C2)cc1` [Example 2.51]: 495 nM. Take `CCOc1ccc(N2CCC(Oc3ccc([C@H](C)NC(C)=O)cc3)C2)cc1` (stereo partly drawn) [Example 1.2]: the midpoint of inhibition, the IC50, lay at 198 nM. Against the preceding compound, the IC50 is about 2.5-fold lower.

In turn, `C[C@H](NC(=O)C(F)(F)F)c1ccc(O[C@@H]2CCN(c3ccc(OCC4CC4)cc3)C2)cc1` [Example 6, N—((S)-1-(4-((R)-1-(4-(Cyclopropylmethoxy)phenyl)pyrrolidin-3-yloxy)phenyl)-ethyl)-2,2,2-trifluoroacetamide] gave an IC50 of 39 nM. This IC50 lies about 5.1-fold lower than the previous one. Next, `COc1ccccc1C(=O)N[C@@H](C)c1ccc(O[C@@H]2CCN(c3ccc(OCC4CC4)cc3)C2)cc1` [Example 2.5]: 800 nM; `C[C@H](NC(=O)c1cnn(CC(F)F)c1)c1ccc(O[C@@H]2CCN(c3ccc(OCC4CC4)cc3)C2)cc1` [Example 2.52]: 805 nM; `CC(=O)N[C@H]1C[C@@H](C(=O)N[C@@H](C)c2ccc(O[C@@H]3CCN(c4ccc(OCC5CC5)cc4)C3)cc2)NC1=O` [Example 2.6]: 705 nM. Next, `C[C@H](NC(=O)C1(C)CC1)c1ccc(O[C@@H]2CCN(c3ccc(OCC4CC4)cc3)C2)cc1` [Example 2.10]: 79 nM; `CC(=O)N[C@@H](C)c1ccc(OC2CCN(c3ccc(O[C@H]4CCOC4)cc3)C2)cc1` (stereo partly drawn) [Example 1.97]: 244 nM; `CCCOc1ccc(N2CCC(Oc3ccc([C@H](C)NC(C)=O)cc3)C2)c(Cl)c1` (stereo partly drawn) [Example 1.29]: 60 nM. To `CC(=O)N[C@@H](C)c1ccc(OC2CCN(c3ccc(F)cc3F)C2)cc1` (stereo partly drawn) [Example 1.35] belongs 899 nM; to `COc1ccc(N2CCC(Oc3ccc([C@H](C)NC(C)=O)cc3)C2)cc1` (stereo partly drawn) [Example 1.24], 589 nM. Consider `C[C@H](NC(=O)c1cnn(C)c1Cl)c1ccc(O[C@@H]2CCN(c3ccc(OCC4CC4)cc3)C2)cc1` [Example 2.44], for which it took 55 nM to reach half-maximal inhibition (IC50). Next, `CC(=O)N[C@@H](C)c1ccc(OC2CCN(c3ccc(OCC(F)(F)F)cc3)C2)cc1` (stereo partly drawn) [Example 1.78]: 546 nM; `CC(=O)N[C@@H](C)c1ccc(OC2CCN(c3ccc(F)c(Cl)c3)C2)cc1` (stereo partly drawn) [Example 1.54]: 300 nM; `COc1cc(OC2CC2)ccc1N1CCC(Oc2ccc([C@H](C)NC(C)=O)cc2)C1` (stereo partly drawn) [Example 1.43]: 274 nM. Next, `C[C@H](NC(=O)N(C)C)c1ccc(O[C@@H]2CCN(c3ccc(OCC4CC4)cc3)C2)cc1` [Example 3.1, 3-((S)-1-(4-((R)-1-(4-(cyclopropylmethoxy)phenyl)pyrrolidin-3-yloxy)phenyl)ethyl)-1,1-dimethylurea]: 74 nM.

Consider `CCN(C)C(=O)N[C@@H](C)c1ccc(OC2CCN(c3ccc(OCC4CC4)cc3)C2)cc1` (stereo partly drawn) [Example 3.4], for which the IC50 was 165 nM.

As for `Cc1cc(CC(=O)N[C@@H](C)c2ccc(O[C@@H]3CCN(c4ccc(OCC5CC5)cc4)C3)cc2)on1` [Example 2.9], the IC50 was determined as 138 nM. This IC50 and that of the compound before are within 1.5-fold of each other.

Regarding `CNC(=O)N[C@@H](C)c1ccc(OC2CCN(c3ccc(OCC4CC4)cc3)C2)cc1` (stereo partly drawn) [Example 3.8], 73 nM corresponded to half-maximal inhibition (IC50). This IC50 lies about 1.9-fold lower than the previous one. Next, `CC(=O)N[C@@H](C)c1ccc(OC2CCN(c3ccc(OCCC(F)F)cc3)C2)cc1` (stereo partly drawn) [Example 1.90]: 40 nM. The compound `C[C@H](NC(=O)c1cnco1)c1ccc(O[C@@H]2CCN(c3ccc(OCC4CC4)cc3)C2)cc1` [Example 2.22] registered an IC50 of 30 nM. The IC50 values of the last two compounds are within 1.5-fold of each other.

The compound `C[C@H](NC(=O)c1ccno1)c1ccc(O[C@@H]2CCN(c3ccc(OCC4CC4)cc3)C2)cc1` [Example 8.3] had an IC50 of 61 nM. `COc1cc(C(=O)N[C@@H](C)c2ccc(O[C@@H]3CCN(c4ccc(OCC5CC5)cc4)C3)cc2)on1` [Example 2.17] displayed an IC50 of 346 nM.

Compound `CO[C@H]1CN(c2ccc(OCC3CC3)cc2)CC1Oc1ccc([C@H](C)NC(C)=O)cc1` (stereo partly drawn) [Example 1.45] had an IC50 of 108 nM.

For the origin of these results see US9169205B2, “Pyrrolidine derivatives, pharmaceutical compositions and uses thereof” (Boehringer Ingelheim International GmbH, priority 2012, dated 2015).
